The target in assay [1] is T1, IQGAP-1 (Cricetulus griseus, UniProt A0A8C2MPD4).
T1 construct: 5×10^7 CHO cells stably transfected with Hs-AT1R were lysed using RIPA buffer; endogenous in cells; host or cells: lysate of CHO cells stably transfected with Hs-AT1R
Nature of the assay: Pull-down on column coated with S391A-RAGE362-404, proteomic analysis. It is filed as binding. The conditions noted are these: lysate of CHO cells stably transfected with Hs-AT1R; NiNTA column; FIG. 11C. The method, then:
The TAT-Cherry-S391A-RAGE362-404 peptide and TAT-mCherry control peptide were bound to a gravity flow NiNTA column, and equilibrated using lysis buffer (50 mM Tris pH 7.5, 300 mM NaCl, 5 mM βB-mercaptoethanol, 10 mM imidazole. 5×10^7 CHO cells stably transfected with Hs-AT1R were lysed using RIPA buffer (1×PBS supplemented with 1% NP-40, 0.5% Na-deoxycholate with protease and phosphatase inhibitors), diluted to 50 ml in lysis buffer and passed over the Ni-NTA column twice by gravity flow. The 1 ml column was washed extensively (200 ml wash buffer-50 mM Tris pH 7.4, 300 mM NaCl, 5 mM β-mercaptoethanol, 20 mM imidazole). After washing, 2 ml of elution buffer (50 mM Tris pH 7.4, 300 mM NaCl, 5 mM β-mercaptoethanol, 250 mM imidazole) was applied to the column, and used to elute proteins that had bound to either the A peptide or TAT-mCherry control peptide. 1 ml of sample was delivered for proteomic analysis by Mass Spectroscopy. Venny 2.1.0 was used to generate lists of the proteins differentially bound to the two proteins.

Assay [2] relates to isolated aortae. Kind of assay: Ex vivo exposure of isolated aortae to Ang II, expression of pro-atherogenic mediators by RT-PCR. On the set-up: species or system mouse. The conditions noted are these: 1 μM. The method, then: At the end of each study period, thoracic and abdominal aortae were placed in TRIZOL, snap frozen and stored at −80° C. RNA extraction and cDNA synthesis was performed in aortic homogenates using the Trizol method. Gene expression of pro-atherogenic mediators including adhesion molecules, cytokines, inflammatory, oxidative stress and macrophage markers, were estimated in aortic homogenates by quantitative real-time RT-PCR, performed using the TaqMan system based on real-time detection of accumulated fluorescence (ABI Prism 7700, Perkin-Elmer Inc, PE Biosystems, Foster City, CA, USA). Gene expression was normalized to 18S mRNA and reported as fold change compared to the level of expression in untreated control mice/cells, which were given an arbitrary value of 1.
Ex Vivo Studies in Isolated Aortae
Aortae were isolated from apoE KO and AGER/apoE DKO mice, divided and placed in Krebs buffer and maintained at physiological pH by infusing carbogen gas (95% O2; 5% CO2) through the buffer at 37° C. Vessels (n=6/group) were then treated with Ang II (1 μM) for 4 hours. After which time, whole blood labelled with DilC18 (1:1000) was then perfused through the aorta at 0.12 ml/min. Images and videos of vessel wall-cell interactions were observed using a fluorescence microscope (Zeiss Discovery.V20), coupled to a digital camera ([…] ORCA-ER) and analysed with AxioVison software.

T1 sequence (A0A8C2MPD4 1-1657): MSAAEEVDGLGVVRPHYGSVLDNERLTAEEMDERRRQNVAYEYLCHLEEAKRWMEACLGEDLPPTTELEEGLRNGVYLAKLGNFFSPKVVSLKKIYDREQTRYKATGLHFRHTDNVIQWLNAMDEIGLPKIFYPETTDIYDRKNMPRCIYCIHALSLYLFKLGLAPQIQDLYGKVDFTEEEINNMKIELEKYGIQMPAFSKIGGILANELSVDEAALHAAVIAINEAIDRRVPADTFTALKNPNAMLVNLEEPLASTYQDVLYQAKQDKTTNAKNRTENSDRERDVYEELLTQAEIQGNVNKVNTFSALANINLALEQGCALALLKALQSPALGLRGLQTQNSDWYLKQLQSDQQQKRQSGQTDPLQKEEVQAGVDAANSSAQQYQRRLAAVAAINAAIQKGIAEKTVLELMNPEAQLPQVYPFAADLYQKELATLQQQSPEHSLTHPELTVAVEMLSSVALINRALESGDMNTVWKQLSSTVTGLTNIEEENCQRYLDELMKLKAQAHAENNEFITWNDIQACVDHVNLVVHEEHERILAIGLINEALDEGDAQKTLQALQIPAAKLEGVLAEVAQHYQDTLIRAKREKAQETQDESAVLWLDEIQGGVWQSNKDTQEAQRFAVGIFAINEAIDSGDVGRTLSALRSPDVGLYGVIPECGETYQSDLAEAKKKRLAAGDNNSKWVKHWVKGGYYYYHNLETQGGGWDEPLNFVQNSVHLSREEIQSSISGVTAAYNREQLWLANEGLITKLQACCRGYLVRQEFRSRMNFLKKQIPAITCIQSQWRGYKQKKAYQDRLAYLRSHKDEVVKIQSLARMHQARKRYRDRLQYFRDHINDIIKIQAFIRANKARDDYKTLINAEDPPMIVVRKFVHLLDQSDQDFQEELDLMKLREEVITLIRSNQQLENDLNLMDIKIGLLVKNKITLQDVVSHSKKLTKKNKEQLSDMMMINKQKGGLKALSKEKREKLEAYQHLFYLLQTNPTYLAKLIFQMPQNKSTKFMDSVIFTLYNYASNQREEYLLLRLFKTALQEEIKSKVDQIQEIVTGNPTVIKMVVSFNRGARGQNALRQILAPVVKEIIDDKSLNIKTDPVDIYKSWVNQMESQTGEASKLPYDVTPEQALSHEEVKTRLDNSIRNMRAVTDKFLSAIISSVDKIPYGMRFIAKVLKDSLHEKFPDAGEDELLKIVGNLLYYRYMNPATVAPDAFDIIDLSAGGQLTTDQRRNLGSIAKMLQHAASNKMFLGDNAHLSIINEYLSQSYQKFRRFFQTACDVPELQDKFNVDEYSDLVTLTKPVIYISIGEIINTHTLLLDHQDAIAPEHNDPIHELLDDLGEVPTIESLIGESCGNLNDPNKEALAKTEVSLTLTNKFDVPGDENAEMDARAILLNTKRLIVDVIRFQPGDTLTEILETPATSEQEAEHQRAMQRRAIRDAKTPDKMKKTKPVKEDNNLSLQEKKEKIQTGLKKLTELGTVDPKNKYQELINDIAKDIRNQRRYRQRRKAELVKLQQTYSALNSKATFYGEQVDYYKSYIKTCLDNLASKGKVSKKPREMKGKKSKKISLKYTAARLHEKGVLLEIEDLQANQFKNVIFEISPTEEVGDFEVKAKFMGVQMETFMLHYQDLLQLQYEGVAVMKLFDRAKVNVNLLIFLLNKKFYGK

Take “L362WQRRQRRGEERKAPENQEEEEERAELNQAEEPEAGESSTGGP404 (LWQRRQRRGEERKAPENQEEEEERAELNQAEEPEAGESSTGGP; listed as Homo sapiens) [S391A-RAGE362-404, S391A mutant RAGE cytosolic tail; non-functional substitute for RAGE]”: in assay [1], the “association with IQGAP-1 (pull-down)” value was “preferentially associates with IQGAP-1”.

“angiotensin II (DRVYIHPF) [Ang II, cognate ligand of AT1R]”: in assay [2] (aortae from AGER/apoE DKO mice), the “induction of atherogenic mediators” value was “prevents”. The “expression of pro-atherogenic mediators” value in assay [2] (isolated aortae from apoE KO mice) was “increases”.

For the origin of these results see US12060408B2, “Screening assays, modulators and modulation of activation of Receptor for Advanced Glycation End-products (RAGE)” (Monash University, priority 2017, dated 2024).
